Test results as given in patent US9056835B2, “LPA2 receptor-specific benzoic acid derivatives” (University of Tennessee Research Foundation, priority 2012, dated 2015).

Key:
LPA2 DKO MEF cells [1] = test: Adriamycin-induced DNA fragmentation in LPA2 DKO MEF and EV DKO MEF cells; format: cell-based, mouse
Experimental: (§1) Mouse embryonic fibroblast (MEF) cells used in this study isolated from LPA1/2 double knock out (LPA2-DKO) mice {Lin, 2007 #132}. These MEF express LPA4/5/6 receptors endogenously at lower levels but completely lack LPA1/2/3 receptor subtypes. The human LPA2 receptor was reintroduced into these MEF cells by lentiviral transduction, which are designated LPA2 DKO MEF {Lin, 2007 #132}. Empty vector-transduced MEF cells, designates as EV DKO MEF, were used as a control. Cells were cultured in a DMEM supplemented with 10% v/v fetal bovine serum (FBS), 2 mM L-glutamine, 100 U/ml penicillin, and 100 μg/mL streptomycin. During serum starvation, the growth medium was replaced with DMEM containing 0.1% (w/v) BSA.
(§2) The cells were plated in 48 well plates (2×10^4 cells/well) and cultured overnight in full growth medium. Next morning the growth medium was replaced by serum-free starvation medium and cells were pretreated for 1 hour with LPA (1 or 3 μM), compound 5b or 7b (1, 3 or 10 μM). Apoptosis was elicited by 1.7 μM Adriamycin in vector and LPA2 transduced MEF cells. Caspase 3, 7, 8, 9 activity and DNA fragmentation were measured to assess apoptosis 5 h after Adriamycin exposure.
DNA fragmentation was quantified by using the Cell Death Detection ELISA assay kit (Roche Diagnostics, Penzberg, Germany). 20 μl cell lysate was incubated with the anti-histone-biotin anti-DNA-peroxidase-conjugated antibody in a 96-well streptavidin-coated plate with shaking at RT for 2 h. After washing the wells three-times with the incubation buffer, 100 μl/well 2,2′-azino-di(3-ethylbenzthiazolin-sulfonate) substrate was added and the absorbance was measured at 405 nm. Protein concentration was measured using BCA Protein Assay Kit (Thermo Fisher Scientific Inc., Rockford, Ill.). DNA fragmentation was expressed as absorbance units/mg protein. LPA was used as a positive control in all experiments.

C57BL/6 mice = test: Radiation-induced mortality, 15.68 Gy PBI-BM5; format: in vivo, mouse; settings: 15.68 Gy PBI-BM5, single 1 mg/kg s.c. 24 h after irradiation
Experimental: 10-week old female C57BL/6 mice were exposed to a 15.68 Gy (˜LD60/8-10) dose of γ-irradiation from a ^137Cs Source. Twenty four hours after irradiation mice were treated with a single 200 μL subcutaneous injection of 1 mg/kg of the test compounds 5b, 7a, and 7b dissolved in 0.8% DMSO, 1% ethanol, 2% propanediol in PBS buffer. The animals were observed daily and provided with food and water ad libitum. Form day four onward the mice also were provided with a gel food diet. The study endpoint was mortality by day 20.

LPA2 [2] = target: T1, LPA2 (Homo sapiens, UniProt Q9HBW0); test: LPA receptor-mediated Ca2+ mobilization assay, LPA2 (RH7777 cells stably expressing LPA2); format: cell-based; design: expressed in transfected cells; settings: Ca2+ transients, RH7777 cells stably expressing LPA2; for EC50: read-out: EC50 (μM) (RH7777)
Experimental: Similarity searches were performed separately using each fingerprint to quantitate similarity. Hits meeting the 80% similarity threshold from each search were ranked based on the Tanimoto coefficient measure of similarity to a target molecule NSC12404, and the top 75 unique hits from each fingerprint search were selected for further analysis. […] This selected a diverse subset of 27 compounds for biological evaluation by choosing the middle compounds in each cluster. These 27 compounds were tested in Ca^2+ mobilization assays at a concentration of 10 μM using stable cell lines individually expressing LPA2 and also in vector-transfected control cells. Hits activating LPA2 were further tested using cells expressing the other established and putative LPA GPCRs. […] They arbitrarily selected GRI977143 for further characterization in cell-based assays.
The newly-synthesized compounds were tested for their ability to induce Ca^2+ transients in RH7777 cells stably expressing the LPA2 receptor.
The cells were loaded with Fura-2-acetoxymethyl esther (Fura-2/AM) in Krebs buffer containing 0.01% pluronic acid for 30 min and rinsed with Krebs buffer before measuring Ca^2+ mobilization. The ratio of peak emissions at 510 nm after 2 min of ligand addition was determined for excitation wavelengths of 340 nm/380 nm. All samples were run in quadruplicate. […] The half maximally effective concentration (EC50), and inhibitory constant (Ki) values were calculated by fitting a sigmoid function to dose-response data points using KaleidaGraph software (version 4.1, Synergy Software; […]).
Mouse embryonic fibroblast (MEF) cells were isolated from E13.5 LPA1&2 double knockout (DKO) embryos. MEFs were transduced with empty vector or LPA2-containing lentiviruses and selected with 1.5 μg/ml puromycin. Cells were maintained in Dulbecco's modified Eagle medium (DMEM) supplemented with 10% (V/V) fetal bovine serum (FBS), 2 mM L-glutamine, 100 U/mL penicillin, and 100 μg/mL streptomycin. Serum-free medium contained 0.1% (W/V) BSA in DMEM. The rat intestinal epithelial cell line 6 (IEC-6) was obtained from the American Type Culture Collection (Rockville, Md.) at passage 13; passages 16-21 were used in all experiments. IEC-6 cells were maintained in a humidified 37° C. incubator in an atmosphere of 90% air and 10% CO2. Growth medium consisted of DMEM supplemented with 5% heat inactivated FBS, 10 μg/mL insulin, and 50 μg/mL gentamycin. The composition of the serum-starvation medium was the same as that of the full growth medium except that it contained no FBS. The McArdle rat hepatoma cell line (RH7777) stably expressing LPA2 receptors was a gift from Dr. Fumikazu Okajima (Gunma University, Maebashi, Japan). RH7777 cells stably expressing LPA1 or LPA3 receptors were generated in-house and had been characterized earlier. Wild type and LPA receptor (LPAR) stably transfected RH7777 cells were grown in DMEM supplemented with 10% FBS and 2 mM L-glutamine in the presence of 250 μg/ml G418. Chinese hamster ovary (CHO) cells stably expressing either vector or LPA4 receptor were a kind gift from Dr. Takao Shimizu (Tokyo University; Tokyo, Japan). Cells were cultured in Ham's F12 medium containing 10% FBS, 2 mM L-glutamine, and 350 μg/ml G418. Rat neuroblastoma cells (B103) were transduced with the lentivirus harboring wild type of FLAG-LPA5 and selected with puromycin to establish the stable cell lines. The stable cells were maintained in DMEM supplemented with 10% FBS and 0.4 μg/ml puromycin. GPR87- and P2Y10-expressing CHO cells and vector-transfected control cells were a gift from Dr. Norihisha Fujita (Ritsumeikan University; Shiga, Japan). The highly invasive MM1 rat hepatoma cells (gift from Dr. Michiko Mukai, Osaka University, Japan) were grown in suspension in DMEM supplemented with 10% (V/V) FBS, 2 mM L-glutamine, 100 U/mL penicillin, and 100 μg/mL streptomycin.

LPA2 DKO MEF cells [3] = test: Adriamycin-induced caspase 3/7 activation in LPA2 DKO MEF and EV DKO MEF cells; format: cell-based, mouse; settings: 1-3 μM, 1 h before Adriamycin
Experimental: as §1, §2
To measure caspase activation the cells were lysed in 50 μl Caspase-Glow® reagent (Caspase 3/7, 8, 9 Promega, Madison, Wis.). The cells were shaken with the caspase reagent for 30 min at room temperature (RT). After 30 min, the luminescence was measured using a BioTek (Winooski, Vt.) plate reader. The mean caspase activity in triplicates/experimental group±SD was calculated. LPA was used as a positive control in all experiments.

LPA2 [4] = target: T1, LPA2; test: Fura-2AM Ca2+ mobilization in LPA2 DKO MEF cells; format: cell-based; design: expressed in transfected cells; host or cells: mouse embryonic fibroblasts from LPA1/2 double-knockout mice, lentiviral transduction; settings: for EC50: DKO MEF; for Emax: MEF
Experimental: (§3) Fluorescence was read every 3.42 seconds for a total of 70 seconds at Ex/Emλ of 340/510 nm and 380/510 nm. Data (relative fluorescence) was then recorded as a mean fluorescence ratio value of the triplicates for each concentration. Graph Pad Prism version 5.0a was then used to fit a non-linear regression curve in a variable slope model (A) to determine the EC50, Emax, and curve fit (R^2)(B).
as §1, §3

T1 sequence (Q9HBW0 whole entry): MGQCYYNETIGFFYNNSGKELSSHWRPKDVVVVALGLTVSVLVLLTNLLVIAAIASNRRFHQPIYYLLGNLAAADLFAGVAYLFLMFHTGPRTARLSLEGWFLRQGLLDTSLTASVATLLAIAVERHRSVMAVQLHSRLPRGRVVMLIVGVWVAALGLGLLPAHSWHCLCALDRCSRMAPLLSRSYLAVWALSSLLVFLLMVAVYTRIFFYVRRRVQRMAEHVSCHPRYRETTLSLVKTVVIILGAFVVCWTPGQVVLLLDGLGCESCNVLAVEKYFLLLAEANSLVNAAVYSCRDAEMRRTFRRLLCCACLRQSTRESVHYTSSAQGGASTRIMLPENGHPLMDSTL

Row | SMILES | protection from DNA fragmentation (LPA2 DKO MEF cells [1]; EV DKO MEF cells) | reduction of DNA fragmentation (LPA2 DKO MEF cells [1]; LPA2 DKO MEF, 10 μM, 60 min pretreatment, Adriamycin) | protection from Adriamycin induced DNA fragmentation (LPA2 DKO MEF cells [1]; LPA2 transduced cells, 3 μM) | mortality by day 20 (C57BL/6 mice) | EC50 (LPA2 [2]) | caspase-3/7 activation (apoptosis) (LPA2 DKO MEF cells [3]; EV DKO MEF) | caspase-3/7 activation (apoptosis) (LPA2 DKO MEF cells [3]; LPA2 DKO MEF) | Emax (LPA2 [2]) | EC50 (LPA2 [4]) | Emax (LPA2 [4])
1 | O=C(O)c1ccccc1S(=O)(=O)NCCCN1C(=O)c2cccc3cccc(c23)C1=O [Compound 5a, 2-[3-(1,3-Dioxo-1H,3H-benzo[de]isoquinolin-2-yl)propylsulfamoyl]benzoic acid] | no protection | ~50% | selectively protected | significantly reduced mortality | 2.2 µM | not in EV DKO MEF cells | significantly reduced apoptosis |  |  | 
2 | O=C(O)c1ccccc1S(=O)(=O)NCCCCN1C(=O)c2cccc3cccc(c23)C1=O [Compound 5b, 2-[4-(1,3-Dioxo-1H,3H-benzo[de]isoquinolin-2-yl)butylsulfamoyl]benzoic acid] |  |  |  |  | 0.5 µM |  |  | 100% | 0.5 µM | 100%
3 | O=C(O)c1ccccc1S(=O)(=O)NCCCCCN1C(=O)c2cccc3cccc(c23)C1=O [Compound 5c] |  |  |  |  | 1.2 µM |  |  | 100% |  | 
4 | O=C(O)c1ccc([N+](=O)[O-])cc1S(=O)(=O)NCCCCN1C(=O)c2cccc3cccc(c23)C1=O [Compound 7a, 2-(N-(4-(1,3-dioxo-1H-benzo[de]isoquinolin-2(3H)-yl)butyl)sulfamoyl)-4-nitrobenzoic acid] |  |  |  | significantly reduced mortality | > 10 µM |  |  |  | > 10 µM | 
5 | O=C(O)c1ccc(Br)cc1S(=O)(=O)NCCCCN1C(=O)c2cccc3cccc(c23)C1=O [Compound 7b, 4-bromo-2-(N-(4-(1,3-dioxo-1H-benzo[de]isoquinolin-2(3H)-yl)butyl)sulfamoyl) benzoic acid] |  |  |  | ineffective | 1 µM | not in EV DKO MEF cells | significantly reduced apoptosis | 100% | 0.4 µM | 100%
6 | COc1ccc(C(=O)O)c(S(=O)(=O)NCCCCN2C(=O)c3cccc4cccc(c34)C2=O)c1 [Compound 7c, 2-(N-(4-(1,3-dioxo-1H-benzo[de]isoquinolin-2(3H)-yl)butyl)sulfamoyl)-4-methoxybenzoic acid] |  |  |  |  | > 10 µM |  |  |  |  | 
7 | O=C(O)c1ccc2c(c1)S(=O)(=O)N(CCCCN1C(=O)c3cccc4cccc(c34)C1=O)C2=O [Compound 9, 2-(4-(1,3-dioxo-1H-benzo[de]isoquinolin-2(3H)-yl)butyl)-3-oxo-2,3-dihydrobenzo[d]isothiazole-6-carboxylic acid 1,1-dioxide] |  |  |  |  | 3.6 µM |  |  | 75% |  | 
